Each block holds one compound with its values, some of them ahead of it.
Legend:
[1] = test system: Canis familiaris; assay: Total electrolytic excretion of potassium in urine of dogs after intravenous administration of 26.2 uM/Kg of drug; type: ADME, organism-based, Canis lupus familiaris; details: dog, in vivo
[2] = test system: Rattus norvegicus; assay: Total electrolytic excretion of chlorine in urine of rats after peroral administration of 86.7 uM/Kg of drug; type: ADME, organism-based; details: in vivo, po
[3] = test system: Rattus norvegicus; assay: Total electrolytic excretion of potassium in urine of rats after peroral administration of 289 uM/Kg of drug; type: ADME, organism-based; details: in vivo, po
[4] = test system: Canis familiaris; assay: Total electrolytic excretion of chlorine in urine of dogs after intravenous administration of 7.85 uM/Kg of drug; type: ADME, organism-based, Canis lupus familiaris; details: dog, in vivo
[5] = test system: Canis familiaris; assay: Total electrolytic excretion of chlorine in urine of dogs after intravenous administration of 52.4 uM/Kg of drug; type: ADME, organism-based, Canis lupus familiaris; details: dog, in vivo
[6] = test system: Rattus norvegicus; assay: Tested for the diuretic activity by measuring the urinary volume after peroral administering 86.7 uM/Kg of drug in rats; type: ADME, organism-based, Urine; details: in vivo, po
[7] = test system: Canis familiaris; assay: Total electrolytic excretion of sodium in urine of dogs after intravenous administration of 7.85 uM/Kg of drug; type: ADME, organism-based, Canis lupus familiaris; details: dog, in vivo
[8] = test system: Canis familiaris; assay: Tested for the diuretic activity by measuring the urinary volume after intravenous administering 26.2 uM/Kg of drug in dogs; type: ADME, organism-based, Canis lupus familiaris, Urine; details: dog, in vivo
[9] = test system: Rattus norvegicus; assay: Ratio of Total electrolytic excretion of sodium and potassium in urine of rats after peroral administration of 28.9 uM/Kg of drug; type: ADME, organism-based; details: in vivo, po
[10] = test system: Canis familiaris; assay: Tested for the diuretic activity by measuring the urinary volume after intravenous administering 52.4 uM/Kg of drug in dogs; type: ADME, organism-based, Canis lupus familiaris, Urine; details: dog, in vivo
[11] = test system: Rattus norvegicus; assay: Tested for the diuretic activity by measuring the urinary volume after peroral administering 28.9 uM/Kg of drug in rats; type: ADME, organism-based, Urine; details: in vivo, po
[12] = test system: Canis familiaris; assay: Total electrolytic excretion of sodium in urine of dogs after intravenous administration of 26.2 uM/Kg of drug; type: ADME, organism-based, Canis lupus familiaris; details: dog, in vivo
[13] = test system: Rattus norvegicus; assay: Total electrolytic excretion of chlorine in urine of rats after peroral administration of 289 uM/Kg of drug; type: ADME, organism-based; details: in vivo, po
[14] = test system: Canis familiaris; assay: Total electrolytic excretion of potassium in urine of dogs after intravenous administration of 7.85 uM/Kg of drug; type: ADME, organism-based, Canis lupus familiaris; details: dog, in vivo
[15] = test system: Rattus norvegicus; assay: Ratio of Total electrolytic excretion of sodium and potassium in urine of rats after peroral administration of 289 uM/Kg of drug; type: ADME, organism-based; details: in vivo, po
[16] = test system: Rattus norvegicus; assay: Total electrolytic excretion of potassium in urine of rats after peroral administration of 28.9 uM/Kg of drug; type: ADME, organism-based; details: in vivo, po
[17] = test system: Canis familiaris; assay: Total electrolytic excretion of potassium in urine of dogs after intravenous administration of 52.4 uM/Kg of drug; type: ADME, organism-based, Canis lupus familiaris; details: dog, in vivo
[18] = test system: Rattus norvegicus; assay: Ratio of Total electrolytic excretion of sodium and potassium in urine of rats after intravenous administration of 26.2 uM/Kg of drug; type: ADME, organism-based; details: in vivo
[19] = test system: Canis familiaris; assay: Total electrolytic excretion of chlorine in urine of dogs after intravenous administration of 26.2 uM/Kg of drug; type: ADME, organism-based, Canis lupus familiaris; details: dog, in vivo
[20] = test system: Rattus norvegicus; assay: Total electrolytic excretion of sodium in urine of rats after peroral administration of 28.9 uM/Kg of drug; type: ADME, organism-based; details: in vivo, po
[21] = test system: Canis familiaris; assay: Ratio of mean of 5 hr urinary excretion of Na+ and K+ from dogs at 7.85 umol/kg (iv); type: ADME, organism-based, Canis lupus familiaris, Urine; details: dog, in vivo
[22] = test system: Rattus norvegicus; assay: Total electrolytic excretion of potassium in urine of rats after peroral administration of 86.7 uM/Kg of drug; type: ADME, organism-based; details: in vivo, po
[23] = test system: Rattus norvegicus; assay: Total electrolytic excretion of sodium in urine of rats after peroral administration of 86.7 uM/Kg of drug; type: ADME, organism-based; details: in vivo, po
[24] = test system: Canis familiaris; assay: Tested for the diuretic activity by measuring the urinary volume after intravenous administering 7.85 uM/Kg of drug in dogs; type: ADME, organism-based, Canis lupus familiaris, Urine; details: dog, in vivo
[25] = test system: Rattus norvegicus; assay: Total electrolytic excretion of chlorine in urine of rats after peroral administration of 28.9 uM/Kg of drug; type: ADME, organism-based; details: in vivo, po
[26] = test system: Rattus norvegicus; assay: Ratio of Total electrolytic excretion of sodium and potassium in urine of rats after intravenous administration of 52.4 uM/Kg of drug; type: ADME, organism-based; details: in vivo
[27] = test system: Rattus norvegicus; assay: Ratio of Total electrolytic excretion of sodium and potassium in urine of rats after peroral administration of 86.7 uM/Kg of drug; type: ADME, organism-based; details: in vivo, po
[28] = test system: Canis familiaris; assay: Total electrolytic excretion of sodium in urine of dogs after intravenous administration of 52.4 uM/Kg of drug; type: ADME, organism-based, Canis lupus familiaris; details: dog, in vivo
[29] = test system: Rattus norvegicus; assay: Tested for the diuretic activity by measuring the urinary volume after peroral administering 289 uM/Kg of drug in rats; type: ADME, organism-based, Urine; details: in vivo, po
[30] = test system: Rattus norvegicus; assay: Total electrolytic excretion of sodium in urine of rats after peroral administration of 289 uM/Kg of drug; type: ADME, organism-based; details: in vivo, po
[31] = test system: Canis familiaris; assay: Total electrolytic excretion of sodium in urine of dogs after intravenous administration of 8.47 uM/Kg of drug; type: ADME, organism-based, Canis lupus familiaris; details: dog, in vivo
[32] = test system: Canis familiaris; assay: Tested for the diuretic activity by measuring the urinary volume after intravenous administering 8.47 uM/Kg of drug in dogs; type: ADME, organism-based, Canis lupus familiaris, Urine; details: dog, in vivo
[33] = test system: Rattus norvegicus; assay: Ratio of Total electrolytic excretion of sodium and potassium in urine of rats after peroral administration of 282 uM/Kg of drug; type: ADME, organism-based; details: in vivo, po
[34] = test system: Rattus norvegicus; assay: Tested for the diuretic activity by measuring the urinary volume after peroral administering 282 uM/Kg of drug in rats; type: ADME, organism-based, Urine; details: in vivo, po
[35] = test system: Rattus norvegicus; assay: Total electrolytic excretion of chlorine in urine of rats after peroral administration of 282 uM/Kg of drug; type: ADME, organism-based; details: in vivo, po
[36] = test system: Rattus norvegicus; assay: Total electrolytic excretion of potassium in urine of rats after peroral administration of 84.7 uM/Kg of drug; type: ADME, organism-based; details: in vivo, po
[37] = test system: Rattus norvegicus; assay: Total electrolytic excretion of chlorine in urine of rats after peroral administration of 28.22 uM/Kg of drug; type: ADME, organism-based; details: in vivo, po
[38] = test system: Canis familiaris; assay: Total electrolytic excretion of potassium in urine of dogs after intravenous administration of 8.47 uM/Kg of drug; type: ADME, organism-based, Canis lupus familiaris; details: dog, in vivo
[39] = test system: Rattus norvegicus; assay: Total electrolytic excretion of sodium in urine of rats after peroral administration of 282 uM/Kg of drug; type: ADME, organism-based; details: in vivo, po
[40] = test system: Rattus norvegicus; assay: Ratio of Total electrolytic excretion of sodium and potassium in urine of rats after intravenous administration of 8.47 uM/Kg of drug; type: ADME, organism-based; details: in vivo
[41] = test system: Rattus norvegicus; assay: Total electrolytic excretion of potassium in urine of rats after peroral administration of 282 uM/Kg of drug; type: ADME, organism-based; details: in vivo, po
[42] = test system: Rattus norvegicus; assay: Total electrolytic excretion of potassium in urine of rats after peroral administration of 28.22 uM/Kg of drug; type: ADME, organism-based; details: in vivo, po
[43] = test system: Canis familiaris; assay: Total electrolytic excretion of chlorine in urine of dogs after intravenous administration of 8.47 uM/Kg of drug; type: ADME, organism-based, Canis lupus familiaris; details: dog, in vivo
[44] = test system: Rattus norvegicus; assay: Ratio of Total electrolytic excretion of sodium and potassium in urine of rats after peroral administration of 84.7 uM/Kg of drug; type: ADME, organism-based; details: in vivo, po
[45] = test system: Rattus norvegicus; assay: Total electrolytic excretion of sodium in urine of rats after peroral administration of 84.7 uM/Kg of drug; type: ADME, organism-based; details: in vivo, po
[46] = test system: Rattus norvegicus; assay: Tested for the diuretic activity by measuring the urinary volume after peroral administering 84.7 uM/Kg of drug in rats; type: ADME, organism-based, Urine; details: in vivo, po
[47] = test system: Rattus norvegicus; assay: Total electrolytic excretion of sodium in urine of rats after peroral administration of 28.2 uM/Kg of drug; type: ADME, organism-based; details: in vivo, po
[48] = test system: Rattus norvegicus; assay: Total electrolytic excretion of chlorine in urine of rats after peroral administration of 84.7 uM/Kg of drug; type: ADME, organism-based; details: in vivo, po
[49] = test system: Rattus norvegicus; assay: Tested for the diuretic activity by measuring the urinary volume after peroral administering 28.2 uM/Kg of drug in rats; type: ADME, organism-based, Urine; details: in vivo, po
[50] = test system: Rattus norvegicus; assay: Ratio of Total electrolytic excretion of sodium and potassium in urine of rats after peroral administration of 28.2 uM/Kg of drug; type: ADME, organism-based; details: in vivo, po

Excretion K+ [1]: 2.3 m equiv
Excretion Cl- [2]: 1.54 m equiv
Excretion K+ [3]: 0.24 m equiv
Excretion Cl- [4]: 7 m equiv
Excretion Cl- [5]: 28.8 m equiv
V [6]: 9.9 mL
Excretion Na+ [7]: 8.4 m equiv
V [8]: 197 mL
Ratio [9]: 4.2
V [10]: 218 mL
V [11]: 5.5 mL
Excretion Na+ [12]: 27.9 m equiv
Excretion Cl- [13]: 1.82 m equiv
Excretion K+ [14]: 1.4 m equiv
Ratio [15]: 7.9
Excretion K+ [16]: 0.24 m equiv
Excretion K+ [17]: 3.3 m equiv
Ratio [18]: 15.3
Excretion Cl- [19]: 22.4 m equiv
Excretion Na+ [20]: 1 m equiv
Ratio [21]: 8.8
Excretion K+ [22]: 0.24 m equiv
Excretion Na+ [23]: 1.58 m equiv
V [24]: 62 mL
Excretion Cl- [25]: 0.97 m equiv
Ratio [26]: 12
Ratio [27]: 6.6
Excretion Na+ [28]: 36 m equiv
V [29]: 11.3 mL
Excretion Na+ [30]: 1.86 m equiv
SMILES: C1CCC(/N=C(\NC23CC4CC(CC(C4)C2)C3)N2CCOCC2)CC1

Excretion Na+ [31]: 6 m equiv
V [32]: 58 mL
Ratio [33]: 8.5
V [34]: 16.2 mL
Excretion Cl- [35]: 1.7 m equiv
Excretion K+ [36]: 0.48 m equiv
Excretion Cl- [37]: 1.32 m equiv
Excretion K+ [38]: 1.1 m equiv
Excretion Na+ [39]: 2.05 m equiv
Ratio [40]: 5.7
Excretion K+ [41]: 0.24 m equiv
Excretion K+ [42]: 0.39 m equiv
Excretion Cl- [43]: 5.7 m equiv
Ratio [44]: 4
Excretion Na+ [45]: 1.9 m equiv
V [46]: 13.6 mL
Excretion Na+ [47]: 1.29 m equiv
Excretion Cl- [48]: 1.82 m equiv
V [49]: 9.2 mL
Ratio [50]: 3.3
SMILES: Fc1ccc(/N=C(/Nc2ccc(F)cc2)N2CCOCC2)cc1
